Laboratory results: US20200101034A1, “RAPID AND CONTROLLED DELIVERY OF COMPOSITIONS WITH RESTORED ENTOURAGE EFFECTS” (RECEPTOR HOLDINGS, INC., priority 2017, published 2020)
Like-named read-outs stand apart in the source and are kept apart here.

Experiments:
[1] = Cannabis/SNAC oral rat pharmacokinetic (PK) study; format: in vivo, rats; conditions: for AUC(0-t) / Tmax: rat, plasma, po; for AUC(0-t): read-out: AUC0-Tlast; for Tmax: read-out: time to reach the mean maximum plasma concentration (Tmax); for AUC0-Tlast versus the cannabis alone group: rats, oral, same cannabis extract dose in the presence of SNAC (250 mg/kg or 500 mg/kg)
Procedure: Example 4. Summary of cannabis/SNAC oral rat pharmacokinetic (PK) study.
Methods. Animals were dosed on Day 1 and a series of blood samples were collected over a period of 4 hours post dose for pharmacokinetic evaluation. Animals were euthanized following collection of their last blood sample.

study participants [2] = experiment: Onset and duration of action of orally administered cannabis/SNAC composition (200 mg SNAC), participant-reported euphoria/dysphoria; format: in vivo, human; conditions: 200 mg SNAC with cannabis concentrate, oral
Procedure: This study was designed to assess the utility of SNAC in enabling a rapid-acting oral form of cannabis.
Selection of Participants. Six study participants were recruited to ingest cannabis compositions and record the onset, duration, and intensity of cannabis-induced euphoria and/or dysphoria.
(§1) Formulations. The selected cannabis concentrate is commercially available and was provided to participants in an ethanol solution. The concentrate contains 8 mg THC per dose. It was selected because it contains a high percentage of THC, which provides a noticeable effect on user- reported “euphoria”.
(§2) Methods. For the Control experiment, each participant mixed the cannabis concentrate with 15 ml (one tablespoon) of aqueous ethanol, and immediately swallowed the mixture.
(§3) For both the Control experiment and the Test experiment, each participant recorded the time of dose administration, the time of onset of euphoria and/or dysphoria, and the observed level of euphoria and/or dysphoria in fifteen minute intervals for five hours following administration of the cannabis dose. Euphoria and dysphoria were reported using a scale value, in a range from 1-10.

study participants [3] = experiment: Onset and duration of action of orally administered cannabis/SNAC composition at a low SNAC dose (100 mg); format: in vivo, human; conditions: 100 mg SNAC with cannabis concentrate, oral
Procedure: Example 2. […] This study was designed to assess the utility of SNAC in enabling a rapid-acting oral form of cannabis at a low dose.
Selection of Participants. Three study participants were recruited to ingest cannabis compositions and record the onset, duration, and intensity of cannabis-induced euphoria and/or dysphoria.
as §1, §2, §3
Results. The results are combined with the data from Example 1 and are reported for all participants in FIG. 8.

Row | Compound | AUC(0-t) [1] [ng·h/mL] | Tmax [1] [h] | AUC0-Tlast versus the cannabis alone group [1] | effect of the absorption enhancer on the duration of action of cannabis (study participants [2]) | effect of the absorption enhancer on the duration of action of cannabis (study participants [3]) | Tmax ([1]; 25 mg/kg) [h] | Tmax ([1]; 50 mg/kg) [h]
1 | C=C(C)[C@@H]1CCC(C)=C[C@H]1c1c(O)cc(CCCCC)cc1O [CBD, cannabidiol] | 13.2 to 382 | 0.25 to 1 | comparable |  |  |  | 
2 | O=C([O-])CCCCCCCNC(=O)c1ccccc1O.[Na+] [SNAC, sodium N-[8-(2-hydroxybenzoyl)amino] caprylate] |  |  |  | no effect | no effect |  | 
3 | CCCCCc1cc(O)c2c(c1)OC(C)(C)[C@@H]1CCC(C)=C[C@@H]21 [THC, delta-9-tetrahydrocannabinol] | 171 to 1260 |  | comparable |  |  | 1 | 2
